Test: Gas chromatographic headspace measurement of fragrance compounds with and without zinc ricinoleate
Assay type: physicochemical
Details: 100 ng of each fragrance chemical on a film of 0.5 g zinc ricinoleate; FIG. 4
From the text: The effect of zinc ricinoleate [Zn(Ri)2] on the partitioning of compounds into the headspace. Headspace analysis is a sampling technique in which a nonvolatile matrix (liquid or solid) is heated and volatiles are collected as they partition (migrate) into the unfilled volume of the vial (headspace). These compounds are concentrated on an adsorbent tube then injected into the chromatograph where individual compounds are separated.
A sample of volatile compounds are placed into a vial, sealed, and heated for a period of time. The volatile compounds will migrate into the gas headspace. The more volatile the compound, the more concentrated it will be in the headspace. Conversely, the less volatile components will partition into the headspace to a lesser extent thus separating components of interest from the nonvolatile sample matrix (diaper).
For each test compound, 1 microliter of a 100 nanogram/microliter (ng/μl) solution (100 ng of each fragrance chemical) is put into a vial, warmed, purged, and volatiles concentrated in an adsorbent cartridge. The cartridge is desorbed into the GC where individual compounds are separated. A second set of each of the fragrance chemicals is prepared and added to a vial where 0.5 g zinc ricinoleate has been added. […]

zinc ricinoleate
effect on headspace volatility of fragrance chemicals: reduction of volatility

Reference: patent publication US11925733B2, “Malodor counteractant composition and methods” (Bell Flavors & Fragrances, Inc., priority 2016, dated 2024)
